Reference: patent publication US10272081B2, “SHIP1 modulators and methods related thereto” (Aquinox Pharmaceuticals (Canada) Inc., priority 2013, dated 2019)

Assays:
[1] = molecular target: T1, His-hSHIP1 enzyme (Homo sapiens, UniProt Q92835); assay: His-hSHIP1 activity, approach 1 (phosphate release from IP4, Biomol Green); format: biochemical; settings: activation of His-hSHIP1; IP4 50 μM; test compound 0-300 μM; no asterisk in Table 2
T1 construct: His
T1 sequence (Q92835 1-1189): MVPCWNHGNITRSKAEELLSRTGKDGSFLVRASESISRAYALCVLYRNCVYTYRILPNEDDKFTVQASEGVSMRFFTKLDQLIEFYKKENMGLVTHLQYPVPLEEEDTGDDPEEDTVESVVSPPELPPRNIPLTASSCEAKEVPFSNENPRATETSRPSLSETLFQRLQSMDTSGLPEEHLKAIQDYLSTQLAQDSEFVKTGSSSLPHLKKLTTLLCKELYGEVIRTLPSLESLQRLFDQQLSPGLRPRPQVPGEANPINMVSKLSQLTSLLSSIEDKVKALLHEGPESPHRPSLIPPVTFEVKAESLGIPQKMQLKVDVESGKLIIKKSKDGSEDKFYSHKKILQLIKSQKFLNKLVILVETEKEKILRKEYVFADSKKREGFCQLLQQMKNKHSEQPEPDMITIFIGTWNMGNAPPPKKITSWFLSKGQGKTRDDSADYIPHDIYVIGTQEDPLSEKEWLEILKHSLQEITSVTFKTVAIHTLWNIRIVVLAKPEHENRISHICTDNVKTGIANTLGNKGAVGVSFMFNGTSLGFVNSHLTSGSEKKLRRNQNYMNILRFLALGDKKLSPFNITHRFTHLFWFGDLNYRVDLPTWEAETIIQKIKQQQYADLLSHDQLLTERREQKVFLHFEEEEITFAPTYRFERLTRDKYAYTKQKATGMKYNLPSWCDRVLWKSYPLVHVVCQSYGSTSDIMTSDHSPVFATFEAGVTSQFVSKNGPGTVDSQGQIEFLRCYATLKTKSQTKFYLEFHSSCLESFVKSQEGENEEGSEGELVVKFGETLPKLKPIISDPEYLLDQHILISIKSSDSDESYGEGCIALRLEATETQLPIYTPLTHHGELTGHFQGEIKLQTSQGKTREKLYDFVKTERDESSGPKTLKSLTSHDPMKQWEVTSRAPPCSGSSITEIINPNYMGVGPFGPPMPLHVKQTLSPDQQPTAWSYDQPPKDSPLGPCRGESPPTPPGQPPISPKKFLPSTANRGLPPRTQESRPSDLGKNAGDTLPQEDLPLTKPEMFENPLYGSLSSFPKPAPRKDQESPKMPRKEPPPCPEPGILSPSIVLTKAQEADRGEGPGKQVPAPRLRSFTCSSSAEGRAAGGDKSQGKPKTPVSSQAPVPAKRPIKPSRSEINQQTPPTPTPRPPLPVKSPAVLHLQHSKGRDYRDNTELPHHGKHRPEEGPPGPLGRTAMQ
Outline: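 Compounds at 0–300 μM final, carried in 10% ethanol, were incubated with 5-20 ng His-hSHIP1 and 50 μM IP4. Buffer was Tris pH 7.5 with 10 mM MgCl2 and Tween 20, 15 min at 37° C. Released phosphate was measured with Biomol Green as absorbance at 650 nm.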

[2] = test system: Akt phosphorylation in Jurkat (SHIP1−) lymphocytes; assay: Akt phosphorylation in lymphocytes, Jurkat (Western blot); format: cell-based; parameters: key: +: inhibits Akt phosphorylation at 10 μM; −: no effect on Akt phosphorylation at 10 μM; settings: 10 μM; IGF-1 stimulated Jurkat (PTEN−/SHIP1−) cells
Method: Jurkat (PTEN−/SHIP1−) or Molt-4 (PTEN−/SHIP1+) cells are starved in serum free RPMI for overnight. In a 15 mL conical tube, 2-3 million serum starved cells (1 million cells per mL) are treated with various concentrations of test compound (0.1, 1, or 10 μM final in 0.1% DMSO) for 30 min at 37° C. followed by stimulation with 100 ng/mL of IGF-1 for 1 hour at 37° C. After stimulation, cells are washed once with ice-cold DPBS and lysed with Lysis Buffer (20 mM Tris-HCl, pH 7.5, 140 mM NaCl, 1% NP-40, Complete Mini Protease Inhibitor Cocktail, 10 mM NaF, 1 mM Na3VO4, 1 mM β-glycerolphosphate) on ice for 30 min with vortexing every 10 min. Samples are then centrifuged at 13,000 rpm for 20 min, and supernatants are collected as total cell lysate samples. Protein concentration is determined using bicinchonic acid assay, and about 15 μg of total protein from each sample is loaded and separated on a 4-12% Tris-Glycine gel. After SDS-PAGE, proteins are transferred from the gel to a nitrocellulose membrane. The membrane is blocked in 5% BSA in PBS containing 0.1% Tween-20 (PBS-T) for 1 hour at room temperature before probing with primary antibodies for overnight at 4° C. The following antibodies are used: mouse anti-SHIP1 (1:500 dilution; Santa Cruz, Calif., USA), rabbit anti-phospho-Akt(Ser473) (1:1000 dilution; Cell Signaling Technologies, MA, USA), rabbit anti-Akt (1:1000; Cell Signaling Technologies, MA, USA), and rabbit anti-actin (1:2000; Cell Signaling Technologies, MA, USA). The membrane is then incubated with goat anti-rabbit or anti-mouse secondary antibodies (1:3000) for 1 hour at room temperature. Target proteins on the membrane are detected with ECL solution and exposed on a film.

[3] = test system: passive cutaneous anaphylaxis in mice; assay: Passive cutaneous anaphylaxis in mice; format: in vivo; settings: oral gavage, doses less than 20 mg/kg
Method: The activity of representative compounds on passive cutaneous anaphylaxis in mice was evaluated according to the procedures disclosed by Ovary, J Immunol 81, 355-357, 1958 and Halpern et al., Br J Pharmacol Chemother 20, 389-398, 1963, both of which are incorporated herein by reference in their entirety.
To induce a passive cutaneous anaphylaxis, mice undergo intradermal ear inoculation on their right ear with 25 ng in 20 μL of anti-DNP-IgE. The left ears are untreated and serve as negative controls. Twenty-four hours after inoculation, all mice are administered test compound by oral gavage (PO). Sixty minutes after oral administration, mice are given a tail vein injection of 2% Evan's Blue (0.2 μm filtered, in 200 μL saline) followed by a second tail IV injection of 100 μg DNP-HSA (in 200 μL). Sixty minutes following the DNP-HAS injection, mice are euthanized using CO2 inhalation. Subsequently, ear biopsies are performed by taking four millimetre punches from both ears, which then undergo Evan's Blue extraction using formamide incubation in 96 well plates. Eighty μL of eluents are transferred to flat-bottom 96-well plates and absorbance read using SpectraMax M5 spectrophotometer (Molecular Devices, Sunnyvale, Calif., USA) at 620 nm. Background readings from all samples are taken at 740 nm and subtracted from the 620 nm readings. Data are reported as OD.

[4] = test system: carrageenan paw edema in mice; assay: Carrageenan paw edema in mice; format: in vivo; settings: 30 mg/kg orally one hour before carrageenan, 4 hours after carrageenan
Method: The activity of representative compounds on carrageenan paw edema in mice was evaluated according to the procedures disclosed by Winter et al., Proc Soc Exp Biol Med 111, 544-547, 1962 which is incorporated herein by reference in its entirety.
To induce edema in the paw, test compounds were administered orally one hour before intraplantar injection of the right hind paw with carrageenan (50 μL of 1% suspension). Hind paw edema, as a measure of inflammation, was recorded using a plethysmometer (Ugo Basile, Italy) 4 hours after λ-carrageenan administration.

SMILES	Scoring, Approach 1 (% increase relative to background) [1]	Jurkat (SHIP1 −), Akt phosphorylation [2]	% Inhibition of allergen-induced passive cutaneous anaphylaxis [3]	inhibition of carrageenan-induced paw edema [4] [%]
CC(=O)N[C@@H]1C[C@H]2C(C)(C)CCC[C@]2(C)[C@@H](C(=O)c2cc(O)cc(O)c2)[C@@H]1C [Compound No. 57, N-[(2R,3S,4S,4aS,8aS)-4-[(3,5-dihydroxyphenyl)carbonyl]-3,4a,8,8-tetramethyl-decahydronaphthalen-2-yl]acetamide]	+++ (x ≥65)	−	+++ (>50% inhibition)	
CC1(C)CCC[C@]2(C)[C@@H](COc3cc(O)cc(O)c3)[C@](C)(O)CC[C@@H]12 [Compound No. 38, 5-{[(1S,2R,4aS,8aS)-2-hydroxy-2,5,5,8a-tetramethyl-decahydronaphthalen-1-yl]methoxy}benzene-1,3-diol]	+ (0 < x < 50)		+++ (>50% inhibition)	
C[C@H]1CC[C@H]2C(C)(C)CCC[C@]2(C)[C@H]1CC(=O)c1cc(O)cc(O)c1 [Compound No. 48, 2-[(1S,2S,4aS,8aR)-2,5,5,8a-tetramethyl-decahydronaphthalen-1-yl]-1-(3,5-dihydroxyphenyl)ethan-1-one]	+++ (x ≥65)			21
